Bounds are passed on as bounds.

The target of this experiment is His-GST-PARP7 (Homo sapiens (Human), UniProt Q7Z3E1). The experiment in a line: PARP7 biochemical assay. Conditions: read-out: PARP7 IC50.
Chain of His-GST-PARP7 (Q7Z3E1 whole entry): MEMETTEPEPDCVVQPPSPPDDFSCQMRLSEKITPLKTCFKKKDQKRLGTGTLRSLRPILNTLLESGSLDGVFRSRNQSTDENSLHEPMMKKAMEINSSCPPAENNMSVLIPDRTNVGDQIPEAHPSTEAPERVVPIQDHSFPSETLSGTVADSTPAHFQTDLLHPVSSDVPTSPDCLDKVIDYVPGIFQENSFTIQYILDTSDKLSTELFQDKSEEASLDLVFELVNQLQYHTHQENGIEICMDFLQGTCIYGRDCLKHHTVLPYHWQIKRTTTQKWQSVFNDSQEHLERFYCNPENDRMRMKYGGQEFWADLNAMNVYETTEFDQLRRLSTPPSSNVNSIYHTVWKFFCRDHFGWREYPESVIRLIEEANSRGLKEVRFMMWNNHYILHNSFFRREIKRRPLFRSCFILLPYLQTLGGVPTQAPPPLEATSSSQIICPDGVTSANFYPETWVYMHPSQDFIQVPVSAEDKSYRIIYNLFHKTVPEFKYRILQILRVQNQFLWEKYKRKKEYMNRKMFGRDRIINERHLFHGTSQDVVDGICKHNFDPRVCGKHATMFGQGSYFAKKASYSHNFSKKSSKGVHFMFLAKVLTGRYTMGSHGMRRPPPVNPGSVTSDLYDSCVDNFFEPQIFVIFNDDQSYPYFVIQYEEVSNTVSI
As a reminder, the IC50 is the concentration needed to halve the response being measured. Turning to `CC#Cc1ccc2c(=O)[nH]nc(Cc3ccc(F)c(C(=O)N4CCN(c5ncc(C)n5C)CC4)c3)c2c1` [Example 79, 4-(3-(4-(1,5-Dimethyl-1H-imidazol-2-yl)piperazine-1-carbonyl)-4-fluorobenzyl)-6-(prop-1-ynyl)phthalazin-1(2H)-one], the IC50 is 100 to 500 nM.

In the case of `CN1CCN(C(=O)c2ccc(Cc3n[nH]c(=O)c4c(F)cccc34)cc2)CC1` [Example 186, 8-Fluoro-4-(4-(4-methylpiperazine-1-carbonyl)benzyl)phthalazin-1(2H)-one], the IC50 was over 2000 nM. Take `CC#Cc1ccc2c(=O)[nH]nc(Cc3ccc(F)c(C(=O)NC(C)c4nnc(C(F)(F)F)o4)c3)c2c1` (centres unmarked) [Example 200, 2-Fluoro-5-((4-oxo-7-(prop-1-ynyl)-3,4-dihydrophthalazin-1-yl)methyl)-N-(1-(5-(trifluoromethyl)-1,3,4-oxadiazol-2-yl)ethyl)benzamide]: the IC50 was over 2000 nM.

Turning to `CN(C(=O)C1CC1)C1CN(C(=O)c2cc(Cc3n[nH]c(=O)c4ccc(OC5CCC5)cc34)ccc2F)C1` [Example 121, N-(1-(5-((7-Cyclobutoxy-4-oxo-3,4-dihydrophthalazin-1-yl)methyl)-2-fluorobenzoyl)azetidin-3-yl)-N-methylcyclopropanecarboxamide], the IC50 lay in the range of 500 to 2000 nM. The figure for `N#Cc1ccc(N2C[C@H]3C[C@@H]2CN3C(=O)c2cccc(Cc3n[nH]c(=O)c4ccc(-c5cccnc5)cc34)c2)nc1` (stereo in doubt) [Example 184, 6-(5-(3-((4-Oxo-7-(pyridin-3-yl)-3,4-dihydrophthalazin-1-yl)methyl)benzoyl)-2,5-diazabicyclo[2.2.1]heptan-2-yl)nicotinonitrile] is 100 to 500 nM; for `O=C(c1cc(Cc2n[nH]c(=O)c3ccc(OC4CCC4)cc23)ccc1F)N1CCn2c(nnc2C(F)F)C1` [Example 163, 6-Cyclobutoxy-4-(3-(3-(difluoromethyl)-5,6,7,8-tetrahydro-[1,2,4]triazolo[4,3-a]pyrazine-7-carbonyl)-4-fluorobenzyl)phthalazin-1(2H)-one] it is under 50 nM; for `O=C(c1ccc(Cl)c(Cc2n[nH]c(=O)c3ccc(OC4CCC4)cc23)c1)N1CCN(c2ncc(C(F)(F)F)cn2)CC1` [Example 173, 4-(2-Chloro-5-(4-(5-(trifluoromethyl)pyrimidin-2-yl)piperazine-1-carbonyl)benzyl)-6-cyclobutoxyphthalazin-1(2H)-one] it is 500 to 2000 nM. The figure for `CC#Cc1ccc2c(=O)[nH]nc(Cc3ccc4c(c3)C(=O)N(CCN(CC)c3ccc(C#N)cn3)C4)c2c1` [Example 75, 6-(Ethyl(2-(1-oxo-6-((4-oxo-7-(prop-1-ynyl)-3,4-dihydrophthalazin-1-yl)methyl)isoindolin-2-yl)ethyl)amino)nicotinonitrile] is over 2000 nM; for `N#Cc1ccc(N2CCN(c3noc4cc(Cc5n[nH]c(=O)c6ccc(OC7CCC7)cc56)ccc34)CC2)nc1` [Example 214, 6-(4-(6-((7-Cyclobutoxy-4-oxo-3,4-dihydrophthalazin-1-yl)methyl)benzo[d]isoxazol-3-yl)piperazin-1-yl)nicotinonitrile] it is over 2000 nM; for `O=C(c1ccc(Cc2n[nH]c(=O)c3ccc(OC4CCC4)cc23)cc1F)N1CCN(c2ncc(C(F)(F)F)cn2)CC1` [Example 172, 6-Cyclobutoxy-4-(3-fluoro-4-(4-(5-(trifluoromethyl)pyrimidin-2-yl)piperazine-1-carbonyl)benzyl)phthalazin-1(2H)-one] it is over 2000 nM. The result for `N#Cc1ccc(N2CC(NC(=O)c3cc(Cc4n[nH]c(=O)c5ccc(OC6CCC6)cc45)ccc3F)C2)nc1` [Example 204, N-(1-(5-Cyanopyridin-2-yl)azetidin-3-yl)-5-((7-cyclobutoxy-4-oxo-3,4-dihydrophthalazin-1-yl)methyl)-2-fluorobenzamide] reads over 2000 nM; that for `CC#Cc1ccc2c(=O)[nH]nc(Cc3ccc(F)c(C(=O)N4CCN(C(=O)CCC(F)(F)F)CC4)c3)c2c1` [Example 57, 4-(4-Fluoro-3-(4-(4,4,4-trifluorobutanoyl)piperazine-1-carbonyl)benzyl)-6-(prop-1-ynyl)phthalazin-1(2H)-one], under 50 nM.

Turning to `O=C(c1cc(Cc2n[nH]c(=O)c3ccc(OC4CCC4)cc23)ccc1F)N1CC2CCC1CN2c1ncc(C(F)(F)F)cn1` (centres unmarked) [Example 144, 6-cyclobutoxy-4-(4-fluoro-3-(5-(5-(trifluoromethyl)pyrimidin-2-yl)-2,5-diazabicyclo[2.2.2]octane-2-carbonyl)benzyl)phthalazin-1(2H)-one], the IC50 was under 50 nM.

Take `CN(C(=O)CCC(F)(F)F)C1CN(C(=O)c2cc(Cc3n[nH]c(=O)c4ccc(OC5CCC5)cc34)ccc2F)C1` [Example 114, N-(1-(5-((7-cyclobutoxy-4-oxo-3,4-dihydrophthalazin-1-yl)methyl)-2-fluorobenzoyl)azetidin-3-yl)-4,4,4-trifluoro-N-methylbutanamide]: the IC50 lay in the range of 100 to 500 nM. With `N#Cc1cncc(N2CCN(C(=O)c3cc(Cc4n[nH]c(=O)c5ccc(OC6CCC6)cc45)ccc3F)CC2)c1` [Example 141, 5-(4-(5-((7-cyclobutoxy-4-oxo-3,4-dihydrophthalazin-1-yl)methyl)-2-fluorobenzoyl)piperazin-1-yl)nicotinonitrile], the IC50 was in the range of 50 to 100 nM.

As for `O=C(c1cc(Cc2n[nH]c(=O)c3ccc(OC4CCC4)cc23)ccc1F)N1CCn2c(CO)nnc2C1` [Example 166, 6-Cyclobutoxy-4-(4-fluoro-3-(3-(hydroxymethyl)-5,6,7,8-tetrahydro-[1,2,4]triazolo[4,3-a]pyrazine-7-carbonyl)benzyl)phthalazin-1(2H)-one], the IC50 was under 50 nM.

Take `CN(c1nccc(C(F)(F)F)n1)C1CN(C(=O)c2cc(Cc3n[nH]c(=O)c4ccc(OC5CCC5)cc34)ccc2F)C1` [Example 120, 6-cyclobutoxy-4-(4-fluoro-3-(3-(methyl(4-(trifluoromethyl)pyrimidin-2-yl)amino)azetidine-1-carbonyl)benzyl) phthalazin-1(2H)-one]: the half-maximal inhibitory concentration (IC50) is 500 to 2000 nM. The result for `COCc1nnc2n1CCN(C(=O)c1cc(Cc3n[nH]c(=O)c4ccc(OC5CCC5)cc34)ccc1F)C2` [Example 167, 6-Cyclobutoxy-4-(4-fluoro-3-(3-(methoxymethyl)-5,6,7,8-tetrahydro-[1,2,4]triazolo[4,3-a]pyrazine-7-carbonyl)benzyl)phthalazin-1(2H)-one] reads under 50 nM; that for `O=C(c1cc(Cc2n[nH]c(=O)c3ccc(OC4CCC4)cc23)ccc1F)N1C[C@@H]2CC[C@H]1CN2C(=O)C1CC1` (stereo in doubt) [Example 142, 6-Cyclobutoxy-4-(3-(5-(cyclopropanecarbonyl)-2,5-diazabicyclo[2.2.2]octane-2-carbonyl)-4-fluorobenzyl)phthalazin-1(2H)-one], 100 to 500 nM.

`N#Cc1ccc(N2CCN(C(=O)c3cc(Cc4n[nH]c(=O)c5ccc(N6CC7(C6)CC(F)(F)C7)cc45)ccc3F)CC2)nc1` [Example 35, 6-(4-(5-((7-(6,6-Difluoro-2-azaspiro[3.3]heptan-2-yl)-4-oxo-3,4-dihydrophthalazin-1-yl)methyl)-2-fluorobenzoyl)piperazin-1-yl)nicotinonitrile]: the IC50 is 50 to 100 nM. The result for `C/C(=C\C(F)(F)F)c1ccc2c(=O)[nH]nc(Cc3ccc(F)c(C(=O)N4CCN(c5ccc(C#N)cn5)CC4)c3)c2c1` [Example 32, (E)-6-(4-(2-fluoro-5-((4-oxo-7-(4,4,4-trifluorobut-2-en-2-yl)-3,4-dihydrophthalazin-1-yl)methyl)benzoyl)piperazin-1-yl)nicotinonitrile] reads under 50 nM; that for `N#Cc1ccc(N2CCN(C(=O)c3cc(Cc4n[nH]c(=O)c5ccc(Oc6ccc7ccccc7c6)cc45)ccc3F)CC2)nc1` [Example 39, 6-(4-(2-Fluoro-5-((7-(naphthalen-2-yloxy)-4-oxo-3,4-dihydrophthalazin-1-yl)methyl)benzoyl)piperazin-1-yl)nicotinonitrile], 50 to 100 nM. As for “6-(3-(5-((7-Cyclobutoxy-4-oxo-3,4-dihydrophthalazin-1-yl)methyl)-2-fluorobenzoyl)-3,8-diazabicyclo[3.2.1]octan-8-yl)nicotinonitrile [Example 99]”, the IC50 is under 50 nM. The figure for `CC#Cc1ccc2c(=O)[nH]nc(Cc3ccc(F)c(C(=O)N4CCN(c5cncc(C#N)n5)CC4)c3)c2c1` [Example 55, 6-(4-(2-Fluoro-5-((4-oxo-7-(prop-1-ynyl)-3,4-dihydrophthalazin-1-yl)methyl)benzoyl)piperazin-1-yl)pyrazine-2-carbonitrile] is 100 to 500 nM; for `CC#Cc1ccc2c(=O)[nH]nc(Cc3ccc(F)c(C(NCCN(CC)c4ccc(C#N)cn4)C(F)(F)F)c3)c2c1` (centres unmarked) [Example 78, 6-(Ethyl(2-((2,2,2-trifluoro-1-(2-fluoro-5-((4-oxo-7-(prop-1-yn-1-yl)-3,4-dihydrophthalazin-1-yl)methyl)phenyl)ethyl)amino)ethyl)amino)nicotinonitrile] it is over 2000 nM; for `COc1nnc2n1CCN(C(=O)c1cc(Cc3n[nH]c(=O)c4ccc(OC5CCC5)cc34)ccc1F)C2` [Example 165, 6-Cyclobutoxy-4-(4-fluoro-3-(3-methoxy-5,6,7,8-tetrahydro-[1,2,4]triazolo[4,3-a]pyrazine-7-carbonyl)benzyl)phthalazin-1(2H)-one] it is under 50 nM.

On to `N#Cc1ccnc(N2CCN(C(=O)c3cc(Cc4n[nH]c(=O)c5ccc(OC6CCC6)cc45)ccc3F)CC2)c1` [Example 95, 2-(4-(5-((7-Cyclobutoxy-4-oxo-3,4-dihydrophthalazin-1-yl)methyl)-2-fluorobenzoyl)piperazin-1-yl)isonicotinonitrile], for which the IC50 is under 50 nM. The result for `N#Cc1ccnc(N2CCN(C(=O)c3cc(Cc4n[nH]c(=O)c5ccc(OC6CCC6)cc45)cc4c3OCC4)CC2)c1` [Example 175, 2-(4-(5-((7-cyclobutoxy-4-oxo-3,4-dihydrophthalazin-1-yl)methyl)-2,3-dihydrobenzofuran-7-carbonyl)piperazin-1-yl)isonicotinonitrile] reads 50 to 100 nM.

With `O=C(C1CC1)N1CCN(c2noc3cc(Cc4n[nH]c(=O)c5ccc(OC6CCC6)cc45)ccc23)CC1` [Example 213, 6-cyclobutoxy-4-((3-(4-(cyclopropanecarbonyl)piperazin-1-yl)benzo[d]isoxazol-6-yl)methyl)phthalazin-1(2H)-one], the half-inhibitory concentration (IC50) is over 2000 nM.

Source of the values: patent US20260055079A1, “PHTHALAZINONE COMPOUNDS AS PARP7 INHIBITORS” (AZKARRA THERAPEUTICS, INC., priority 2022, published 2026).
